Activity calls are given as the source filed them. The calls are words filed in the database; no cut-off is given here.

Results on 1 compound are retold here after ChEMBL document CHEMBL4304811, “Development of a Water-Soluble Indolylmaleimide Derivative IM-93 Showing Dual Inhibition of Ferroptosis and NETosis” (ACS Med Chem Lett, 2019).

Assay [1] concerns the target Protein-arginine deiminase type-4 (Homo sapiens) (UniProt Q9UM07). As to the kind of experiment: Inhibition of recombinant human PAD4 at 200 uM using N-alpha-benzoyl-L-arginine ethyl ester as substrate by fluorescence based analysis.
Assay [2] has as its target TGF-beta receptor type-1 (Homo sapiens) (UniProt P36897). As to the kind of experiment: Binding affinity to wild-type human partial length TGFBR1 (D179 to M503 residues) expressed in bacterial expression system assessed as residual binding level at 10 uM by Kinomescan method relative to control.
Assay [3] deals with Homeodomain-interacting protein kinase 1 (Homo sapiens) (UniProt Q86Z02). The experiment in a line: Binding affinity to wild-type human partial length HIPK1 (M146 to I555 residues) expressed in mammalian expression system assessed as residual binding level at 10 uM by Kinomescan method relative to control.
Assay [4] addresses Serine/threonine-protein kinase 38 (Homo sapiens) (UniProt Q15208). As to the kind of experiment: Binding affinity to wild-type human partial length NDR1 (N33 to E449 residues) expressed in mammalian expression system assessed as residual binding level at 10 uM by Kinomescan method relative to control.
Assay [5] addresses Mitotic checkpoint serine/threonine-protein kinase BUB1 (Homo sapiens) (UniProt O43683). As to the kind of experiment: Binding affinity to wild-type human partial length BUB1 (Q724 to K1085 residues) expressed in mammalian expression system assessed as residual binding level at 10 uM by Kinomescan method relative to control.
The target of assay [6] is Serine/threonine-protein kinase 17B (Homo sapiens) (UniProt O94768). As to the kind of experiment: Binding affinity to wild-type human full length DRAK2 (M1 to C372 residues) expressed in bacterial expression system assessed as residual binding level at 10 uM by Kinomescan method relative to control.
Assay [7] has as its target Mitogen-activated protein kinase kinase kinase kinase 1 (Homo sapiens) (UniProt Q92918). The experiment in a line: Binding affinity to wild-type human full length HPK1 (M1 to R799 residues) expressed in bacterial expression system assessed as residual binding level at 10 uM by Kinomescan method relative to control.
For assay [8], the system named is Proto-oncogene tyrosine-protein kinase receptor Ret (Homo sapiens), P07949 [M918T]. The experiment in a line: Binding affinity to human partial length RET M918T mutant (E713 to D1014 residues) expressed in bacterial expression system assessed as residual binding level at 10 uM by Kinomescan method relative to control.
The test system of assay [9] is ALK tyrosine kinase receptor (Homo sapiens), Q9UM73 [L1196M]. As to the kind of experiment: Binding affinity to […] human partial length ALK L1196M mutant (I1088 to E1409 residues) expressed in mammalian expression system assessed as residual binding level at 10 uM by Kinomescan method relative to control.
The target in assay [10] is Serine/threonine-protein kinase VRK2 (Homo sapiens) (UniProt Q86Y07). As to the kind of experiment: Binding affinity to wild-type human partial length VRK2 (M1 to T336 residues) expressed in mammalian expression system assessed as residual binding level at 10 uM by Kinomescan method relative to control.
Serine/threonine-protein kinase VRK2 (Homo sapiens), sequence (Q86Y07 whole entry, the tested form may be a part): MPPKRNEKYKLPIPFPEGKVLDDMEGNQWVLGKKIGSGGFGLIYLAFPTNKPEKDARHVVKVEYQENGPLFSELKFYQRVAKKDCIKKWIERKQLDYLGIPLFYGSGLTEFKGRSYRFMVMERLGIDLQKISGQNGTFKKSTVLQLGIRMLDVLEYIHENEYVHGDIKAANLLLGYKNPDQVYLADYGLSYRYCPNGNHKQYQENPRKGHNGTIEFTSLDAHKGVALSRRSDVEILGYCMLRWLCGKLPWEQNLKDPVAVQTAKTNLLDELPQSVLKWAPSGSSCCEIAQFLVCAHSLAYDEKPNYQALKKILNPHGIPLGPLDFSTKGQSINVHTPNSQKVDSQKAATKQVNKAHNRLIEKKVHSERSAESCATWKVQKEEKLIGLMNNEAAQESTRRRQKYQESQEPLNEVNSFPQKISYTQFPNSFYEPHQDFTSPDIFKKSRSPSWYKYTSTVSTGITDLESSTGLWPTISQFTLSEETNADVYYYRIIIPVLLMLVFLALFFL
For assay [11], the target named is Cyclin-G-associated kinase (Homo sapiens) (UniProt O14976). The experiment in a line: Binding affinity to wild-type human partial length GAK (G13 to Y338 residues) expressed in bacterial expression system assessed as residual binding level at 10 uM by Kinomescan method relative to control.
In assay [12] the target is Serine/threonine-protein kinase MARK1 (Homo sapiens) (UniProt Q9P0L2). As to the kind of experiment: Binding affinity to wild-type human partial length MARK1 (Q30 to T341 residues) expressed in bacterial expression system assessed as residual binding level at 10 uM by Kinomescan method relative to control.
For assay [13], the target named is Myosin light chain kinase, smooth muscle (Homo sapiens) (UniProt Q15746). As to the kind of experiment: Binding affinity to wild-type human full length MYLK (M854 to E1845 residues) expressed in mammalian expression system assessed as residual binding level at 10 uM by Kinomescan method relative to control.
The target of assay [14] is Interleukin-1 receptor-associated kinase 4 (Homo sapiens) (UniProt Q9NWZ3). As to the kind of experiment: Binding affinity to wild-type human partial length IRAK4 (M1 to S460 residues) expressed in mammalian expression system assessed as residual binding level at 10 uM by Kinomescan method relative to control.
In assay [15] the target is Cyclin-dependent kinase-like 5 (Homo sapiens) (UniProt O76039). The experiment in a line: Binding affinity to wild-type human partial length CDKL5 (M1 to S337 residues) expressed in mammalian expression system assessed as residual binding level at 10 uM by Kinomescan method relative to control.
Assay [16] concerns the target Macrophage-stimulating protein receptor (Homo sapiens) (UniProt Q04912). The experiment in a line: Binding affinity to wild-type human partial length MST1R (I1057 to L1363 residues) expressed in bacterial expression system assessed as residual binding level at 10 uM by Kinomescan method relative to control.
Assay [17] concerns the target Mitogen-activated protein kinase kinase kinase 9 (Homo sapiens) (UniProt P80192). As to the kind of experiment: Binding affinity to wild-type human partial length MLK1 (V88 to W426 residues) expressed in bacterial expression system assessed as residual binding level at 10 uM by Kinomescan method relative to control.
In assay [18] the target is Serine/threonine-protein kinase 4 (Homo sapiens) (UniProt Q13043). The experiment in a line: Binding affinity to wild-type human full length MST1 (M1 to F487 residues) expressed in bacterial expression system assessed as residual binding level at 10 uM by Kinomescan method relative to control.
Assay [19] relates to Tyrosine-protein kinase ABL1 (Homo sapiens), P00519 [Q252H]. The experiment in a line: Binding affinity to human non-phosphorylated ABL1 Q252H mutant (S229 to K512 residues) expressed in mammalian expression system assessed as residual binding level at 10 uM by Kinomescan method relative to control.
Assay [20] addresses Serine/threonine-protein kinase 24 (Homo sapiens) (UniProt Q9Y6E0). As to the kind of experiment: Binding affinity to wild-type human partial length MST3 (A30 to S311 residues) expressed in bacterial expression system assessed as residual binding level at 10 uM by Kinomescan method relative to control.
In assay [21] the target is Tyrosine-protein kinase JAK1 (Homo sapiens) (UniProt P23458). As to the kind of experiment: Binding affinity to wild-type human partial length JAK1 JH2 pseudokinase domain (R537 to D855 residues) expressed in mammalian expression system assessed as residual binding level at 10 uM by Kinomescan method relative to control.
In assay [22] the target is Tyrosine-protein kinase receptor TYRO3 (Homo sapiens) (UniProt Q06418). The experiment in a line: Binding affinity to wild-type human partial length TYRO3 (S497 to T814 residues) expressed in bacterial expression system assessed as residual binding level at 10 uM by Kinomescan method relative to control.
Assay [23] addresses Tyrosine-protein kinase ITK/TSK (Homo sapiens) (UniProt Q08881). As to the kind of experiment: Binding affinity to wild-type human partial length ITK (R335 to L620 residues) expressed in bacterial expression system assessed as residual binding level at 10 uM by Kinomescan method relative to control.
In assay [24] the target is Maternal embryonic leucine zipper kinase (Homo sapiens) (UniProt Q14680). The experiment in a line: Binding affinity to wild-type human full length MELK (M1 to V651 residues) expressed in bacterial expression system assessed as residual binding level at 10 uM by Kinomescan method relative to control.

Tyrosine-protein kinase ITK/TSK (Homo sapiens), sequence (Q08881 whole entry, the tested form may be a part): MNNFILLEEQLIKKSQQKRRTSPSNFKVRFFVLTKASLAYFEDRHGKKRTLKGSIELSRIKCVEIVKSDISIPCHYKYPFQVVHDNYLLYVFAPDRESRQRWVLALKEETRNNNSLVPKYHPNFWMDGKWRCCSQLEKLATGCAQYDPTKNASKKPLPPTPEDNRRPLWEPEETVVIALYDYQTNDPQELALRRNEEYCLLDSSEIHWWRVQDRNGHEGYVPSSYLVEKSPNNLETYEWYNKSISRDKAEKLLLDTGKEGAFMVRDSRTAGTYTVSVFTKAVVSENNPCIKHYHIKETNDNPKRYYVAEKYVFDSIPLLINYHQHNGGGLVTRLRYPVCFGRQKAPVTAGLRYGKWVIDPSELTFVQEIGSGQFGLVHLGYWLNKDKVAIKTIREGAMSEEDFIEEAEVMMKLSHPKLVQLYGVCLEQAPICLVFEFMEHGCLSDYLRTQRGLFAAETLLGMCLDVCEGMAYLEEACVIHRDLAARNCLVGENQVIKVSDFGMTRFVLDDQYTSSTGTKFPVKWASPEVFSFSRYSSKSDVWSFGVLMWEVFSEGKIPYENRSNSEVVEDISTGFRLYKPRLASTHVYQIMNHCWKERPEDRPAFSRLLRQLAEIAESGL
Mitogen-activated protein kinase kinase kinase 9 (Homo sapiens), sequence (P80192 whole entry, looked up, the tested form may be a part): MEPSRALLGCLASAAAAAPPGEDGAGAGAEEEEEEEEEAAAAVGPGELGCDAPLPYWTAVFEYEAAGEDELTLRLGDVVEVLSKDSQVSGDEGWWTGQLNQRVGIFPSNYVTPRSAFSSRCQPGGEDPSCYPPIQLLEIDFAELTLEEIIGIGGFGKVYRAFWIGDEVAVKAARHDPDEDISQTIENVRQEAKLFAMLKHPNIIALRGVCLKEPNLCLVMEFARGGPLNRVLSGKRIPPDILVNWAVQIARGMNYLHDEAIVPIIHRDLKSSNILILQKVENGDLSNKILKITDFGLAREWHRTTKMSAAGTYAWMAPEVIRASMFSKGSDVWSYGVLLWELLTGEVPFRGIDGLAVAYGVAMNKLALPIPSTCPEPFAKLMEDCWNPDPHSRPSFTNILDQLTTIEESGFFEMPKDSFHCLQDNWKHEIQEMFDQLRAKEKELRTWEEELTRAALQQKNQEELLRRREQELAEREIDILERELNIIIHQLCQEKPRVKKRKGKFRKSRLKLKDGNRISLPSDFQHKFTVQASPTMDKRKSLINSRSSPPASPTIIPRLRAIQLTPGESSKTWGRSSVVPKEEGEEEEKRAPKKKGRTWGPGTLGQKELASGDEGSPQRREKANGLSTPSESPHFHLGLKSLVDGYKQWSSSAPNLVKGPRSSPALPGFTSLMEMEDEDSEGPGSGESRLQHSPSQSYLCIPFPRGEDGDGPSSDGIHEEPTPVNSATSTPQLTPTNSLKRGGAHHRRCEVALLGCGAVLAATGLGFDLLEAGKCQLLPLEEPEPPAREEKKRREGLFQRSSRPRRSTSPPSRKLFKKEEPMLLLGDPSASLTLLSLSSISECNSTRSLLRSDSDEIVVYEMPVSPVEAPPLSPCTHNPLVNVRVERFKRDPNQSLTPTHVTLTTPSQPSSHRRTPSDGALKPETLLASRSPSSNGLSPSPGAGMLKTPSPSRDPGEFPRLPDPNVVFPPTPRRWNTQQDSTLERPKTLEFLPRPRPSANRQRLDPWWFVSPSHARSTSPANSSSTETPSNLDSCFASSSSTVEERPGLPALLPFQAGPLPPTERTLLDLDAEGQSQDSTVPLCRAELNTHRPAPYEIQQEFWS
TGF-beta receptor type-1 (Homo sapiens), sequence (P36897 whole entry, the tested form may be a part): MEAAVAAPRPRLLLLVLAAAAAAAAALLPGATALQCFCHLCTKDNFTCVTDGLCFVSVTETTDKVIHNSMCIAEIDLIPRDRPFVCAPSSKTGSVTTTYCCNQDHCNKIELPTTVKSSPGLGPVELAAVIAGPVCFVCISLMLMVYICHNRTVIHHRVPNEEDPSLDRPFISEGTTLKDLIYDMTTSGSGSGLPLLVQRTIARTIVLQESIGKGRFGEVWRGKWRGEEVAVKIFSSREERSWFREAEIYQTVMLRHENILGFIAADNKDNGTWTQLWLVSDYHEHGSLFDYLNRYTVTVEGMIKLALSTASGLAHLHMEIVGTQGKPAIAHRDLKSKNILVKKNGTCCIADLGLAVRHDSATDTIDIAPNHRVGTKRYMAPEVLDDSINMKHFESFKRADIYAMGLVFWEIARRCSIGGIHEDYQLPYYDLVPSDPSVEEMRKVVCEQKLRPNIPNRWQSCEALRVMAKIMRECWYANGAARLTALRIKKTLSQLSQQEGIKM
Serine/threonine-protein kinase 38 (Homo sapiens), sequence (Q15208 2-465 limits assumed): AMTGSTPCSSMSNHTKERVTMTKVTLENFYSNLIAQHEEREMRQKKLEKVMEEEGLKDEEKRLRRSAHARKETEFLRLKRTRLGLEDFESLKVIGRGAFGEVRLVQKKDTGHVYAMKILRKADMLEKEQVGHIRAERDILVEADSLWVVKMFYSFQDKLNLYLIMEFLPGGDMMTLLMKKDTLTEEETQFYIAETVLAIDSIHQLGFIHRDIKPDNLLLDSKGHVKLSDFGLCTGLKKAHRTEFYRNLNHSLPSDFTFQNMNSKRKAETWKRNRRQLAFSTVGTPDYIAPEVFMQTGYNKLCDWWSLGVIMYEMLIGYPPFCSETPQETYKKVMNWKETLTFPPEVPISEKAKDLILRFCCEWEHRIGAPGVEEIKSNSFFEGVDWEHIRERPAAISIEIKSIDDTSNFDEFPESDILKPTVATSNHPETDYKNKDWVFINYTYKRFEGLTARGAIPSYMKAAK
Macrophage-stimulating protein receptor (Homo sapiens), sequence (Q04912 25-304 limits assumed): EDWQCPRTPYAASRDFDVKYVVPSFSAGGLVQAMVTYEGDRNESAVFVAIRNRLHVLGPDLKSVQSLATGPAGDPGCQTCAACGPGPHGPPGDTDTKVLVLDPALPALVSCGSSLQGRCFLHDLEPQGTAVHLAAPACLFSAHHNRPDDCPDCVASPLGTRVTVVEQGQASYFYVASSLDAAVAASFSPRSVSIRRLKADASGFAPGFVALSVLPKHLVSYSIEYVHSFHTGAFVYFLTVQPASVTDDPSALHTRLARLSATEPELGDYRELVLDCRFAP
Macrophage-stimulating protein receptor (Homo sapiens), sequence (Q04912 310-1400 limits assumed): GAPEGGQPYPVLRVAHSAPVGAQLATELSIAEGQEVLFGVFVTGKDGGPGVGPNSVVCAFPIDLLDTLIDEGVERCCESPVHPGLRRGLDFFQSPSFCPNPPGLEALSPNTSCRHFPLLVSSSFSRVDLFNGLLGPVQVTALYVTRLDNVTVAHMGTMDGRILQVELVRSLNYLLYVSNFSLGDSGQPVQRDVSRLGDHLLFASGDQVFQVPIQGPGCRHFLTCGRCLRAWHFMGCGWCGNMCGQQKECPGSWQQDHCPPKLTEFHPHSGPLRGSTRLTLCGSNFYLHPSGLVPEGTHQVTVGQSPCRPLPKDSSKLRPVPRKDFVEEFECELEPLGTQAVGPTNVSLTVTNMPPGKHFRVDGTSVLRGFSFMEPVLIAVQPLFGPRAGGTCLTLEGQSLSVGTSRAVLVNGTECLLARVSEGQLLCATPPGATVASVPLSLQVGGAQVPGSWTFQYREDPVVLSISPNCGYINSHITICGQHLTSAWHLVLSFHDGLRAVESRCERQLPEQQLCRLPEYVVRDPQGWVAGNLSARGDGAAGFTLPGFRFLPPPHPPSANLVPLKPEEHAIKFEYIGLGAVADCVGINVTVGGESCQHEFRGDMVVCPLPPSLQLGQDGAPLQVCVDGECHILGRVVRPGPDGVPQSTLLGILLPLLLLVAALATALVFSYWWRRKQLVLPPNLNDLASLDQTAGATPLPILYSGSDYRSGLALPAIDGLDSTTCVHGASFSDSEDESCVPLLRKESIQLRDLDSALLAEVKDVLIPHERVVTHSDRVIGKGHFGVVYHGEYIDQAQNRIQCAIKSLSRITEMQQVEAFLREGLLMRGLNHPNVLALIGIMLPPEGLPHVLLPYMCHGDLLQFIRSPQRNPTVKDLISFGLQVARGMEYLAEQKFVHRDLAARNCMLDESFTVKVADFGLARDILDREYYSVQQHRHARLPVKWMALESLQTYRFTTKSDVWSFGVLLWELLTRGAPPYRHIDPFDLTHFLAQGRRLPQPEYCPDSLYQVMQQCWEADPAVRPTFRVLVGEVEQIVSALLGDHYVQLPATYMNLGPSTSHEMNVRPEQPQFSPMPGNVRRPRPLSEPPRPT
Serine/threonine-protein kinase 24 (Homo sapiens), sequence (Q9Y6E0 whole entry, looked up, the tested form may be a part): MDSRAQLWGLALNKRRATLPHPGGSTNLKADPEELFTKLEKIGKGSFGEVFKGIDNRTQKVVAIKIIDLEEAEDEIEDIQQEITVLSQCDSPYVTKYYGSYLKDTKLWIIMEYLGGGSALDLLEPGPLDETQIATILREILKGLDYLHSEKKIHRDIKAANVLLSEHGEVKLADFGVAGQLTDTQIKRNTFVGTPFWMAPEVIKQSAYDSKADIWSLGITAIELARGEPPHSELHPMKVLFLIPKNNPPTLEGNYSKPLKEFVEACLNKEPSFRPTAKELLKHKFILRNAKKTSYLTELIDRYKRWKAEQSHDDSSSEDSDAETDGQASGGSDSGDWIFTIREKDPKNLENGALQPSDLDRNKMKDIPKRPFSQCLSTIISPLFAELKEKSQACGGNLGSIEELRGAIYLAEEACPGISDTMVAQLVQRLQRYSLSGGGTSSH

Take `CC(C)N1C(=O)C(NCCCN(C)C)=C(c2cn(C)c3ccccc23)C1=O.Cl`: the inhibition entry in assay [1] is “inactive”. Also, the Activity in [2] was found to be 100%; in assay [3], 100%; in assay [4], 93%; in [5], 92%; in assay [6], 91%; in assay [7] it was 100%. The Activity came out at 86% in assay [8]; 90% in assay [9]; 95% in [10]; 94% in assay [11]; 67% in assay [12]; 75% in assay [13]. The Activity in assay [14] turned out to be 74%; in assay [15], 96%; in [16], 100%; in [17], 100%; in assay [18], 93%; in assay [19], 100%. The Activity in assay [20] stood at 100%; in [21] it was 88%; in [22] it was 100%; in assay [23], 100%; in assay [24] it was 100%.
